Measured values from patent publication US5444057A, “Carbapenem-antibiotic compounds” (Zeneca Limited, priority 1992, dated 1995).
≈ marks a conversion by molar mass, not a printed value.

Tests used:
B. fragilis AMP S = assay: MIC by agar dilution, B. fragilis AMP S; assay type: cell-based; details: Bacteroides fragilis, Diagnostic Sensitivity Test, inoculum 10^4 CFU/spot
Source text: (§1) The antibacterial activity is described in terms of the minimum inhibitory concentration (MIC) determined by the agar-dilution technique with an inoculum size of 10^4 CFU/spot.

E. coli DCO = assay: MIC by agar dilution, E. coli DCO; assay type: cell-based; details: Escherichia coli, Diagnostic Sensitivity Test, inoculum 10^4 CFU/spot
Source text: as §1

S. aureus Oxford = assay: MIC by agar dilution, S. aureus Oxford; assay type: cell-based; details: Staphylococcus aureus, Diagnostic Sensitivity Test, inoculum 10^4 CFU/spot
Source text: as §1

P. morganii I + 001 = assay: MIC by agar dilution, P. morganii I + 001; assay type: cell-based; details: Morganella morganii, Diagnostic Sensitivity Test, inoculum 10^4 CFU/spot
Source text: as §1

[1] = system: Enterobacter cloacae P99-; assay: MIC by agar dilution, Enterobacter cloacae P99-; assay type: cell-based
Source text: as §1

bacteria = details: cited from earlier work

C[C@@H](O)[C@H]1C(=O)N2C(C(=O)O)=C(S[C@@H]3CN[C@H](C(=O)Nc4ccc(C(=O)O)cn4)C3)[C@H](C)[C@H]12 [Example 4, (1R,5R,6S,8S,2'S,4'S)-2-(2-(5-Carboxy-2-pyridylcarbamoyl)pyrrolidin-4-ylthio)-6-(1-hydroxyethyl)-1-methylcarbapenem-3-carboxylic acid]
MIC (B. fragilis AMP S): 0.25 mg/L (≈ 0.525 µM) | MIC (E. coli DCO): 0.02 mg/L (≈ 0.042 µM) | MIC (S. aureus Oxford): 0.13 mg/L (≈ 0.273 µM) | MIC (P. morganii I + 001): 0.02 mg/L | MIC [1]: 0.02 mg/L (≈ 0.042 µM)

C[C@@H](O)[C@H]1C(=O)N2C(C(=O)O)=C(SCCN=CN)C[C@H]12 [imipenem, N-formimidoyl thienamycin]
antibacterial activity (bacteria): broad spectrum of antibacterial activity
